Target: enzyme R39 (Actinomadura sp. R39, UniProt P39045)
Test: Stability of the enzyme R39-antibiotic complex
Type: binding
Conditions: at 37° C.
Procedure: the extraordinary stability of the said complex, because, once formed it only breaks down very slowly. By way of example, the half-life of the complex formed between enzyme R39 and penicillin G is about 70 hours at 37° C.; and […]

Sequence of enzyme R39 (P39045 50-515): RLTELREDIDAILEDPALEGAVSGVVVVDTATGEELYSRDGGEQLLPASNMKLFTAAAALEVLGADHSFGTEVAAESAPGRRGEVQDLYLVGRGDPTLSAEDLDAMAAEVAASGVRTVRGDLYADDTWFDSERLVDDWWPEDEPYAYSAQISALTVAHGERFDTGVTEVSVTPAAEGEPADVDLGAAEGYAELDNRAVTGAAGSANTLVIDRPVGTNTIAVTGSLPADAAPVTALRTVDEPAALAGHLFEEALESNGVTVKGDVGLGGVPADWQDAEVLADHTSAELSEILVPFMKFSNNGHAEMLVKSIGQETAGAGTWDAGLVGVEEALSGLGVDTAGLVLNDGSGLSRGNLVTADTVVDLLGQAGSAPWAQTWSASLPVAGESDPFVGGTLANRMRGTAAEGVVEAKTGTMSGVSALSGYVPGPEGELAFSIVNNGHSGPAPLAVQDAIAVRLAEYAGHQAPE

With `CC1(C)S[C@@H]2[C@H](NC(=O)Cc3ccccc3)C(=O)N2[C@H]1C(=O)O` [penicillin G, benzyl penicillin (penicillin G)] the “half-life of the complex formed between enzyme R39 and the antibiotic” value was “about 70 hours”.
